# In patent publication US6534530B1, “Antipicornaviral compounds and compositions, their pharmaceutical uses, and materials for their synthesis” (Agouron Pharmaceuticals, Inc., priority 1999, dated 2003):
# How the values were obtained:
# [1] = tested on: HRV-10; test: Antirhinoviral H1-HeLa cell culture assay (XTT), HRV-10; format: cell-based; settings: Human rhinovirus sp., HRV10, HRV-10, H1-HeLa cells
# Description: (§1) (1989), vol. 81, 577-586.
# [2] = tested on: CVB3; test: Anticoxsackieviral cell culture assay (XTT), CVB3; format: cell-based, coxsackievirus B3; settings: Enterovirus B, 24 h; CVB3, H1-HeLa cells, m.o.i. 0.075, one day
# [3] = target: T1, recombinant rhinovirus 3C protease, serotype 14 (Human rhinovirus 14, UniProt P03303); test: Inhibition of rhinovirus 3C protease (FRET assay), serotype 14; format: biochemical
# T1 construct: Recombinant rhinovirus 3C proteases; made in house
# Description: (§2) Stock solutions (50 mM, in DMSO) of various compounds were prepared; dilutions were in the same solvent. Recombinant rhinovirus 3C proteases (see Birch et al., “Purification of recombinant human rhinovirus 14 3C protease expressed in Escherichia coli,” Protein Expr. Pur. (1995), vol. 6(5), 609-618) from serotypes 14, 16, and 2 were prepared by the following standard chromatographic procedures: (1) ion exchange using Q Sepharose Fast Flow from Pharmacia; (2) affinity chromatography using Affi-Gel Blue from Biorad; and (3) sizing using Sephadex G-100 from Pharmacia. Each assay sample contained 2% DMSO, 50 mM tris pH 7.6, 1 mM EDTA, a test compound at the indicated concentration, approximately 1 μM substrate, and 50-100 nM protease. The kobs/I values were obtained from reactions initiated by addition of enzyme rather than substrate. RVP activity was measured in the fluorescence resonance energy transfer assay. The substrate was (N-terminal) DABCYL-([…]-EDANS. In the uncleaved peptide, the EDANS fluorescence was quenched by the proximal DABCYL moiety. When the peptide was cleaved, the quenching was relieved, and activity was measured as an increase in fluorescence signal. The tabulated data in the column designated kobs/[I] were measured from progress curves in enzyme start experiments.
# [4] = Cytotoxicity in uninfected H1-HeLa cells (anticoxsackieviral assay, XTT); format: cell-based; settings: human
# [5] = tested on: ECHO 11; test: Anti-echoviral cell culture assay (XTT), ECHO 11 in MRC-5 cells; format: cell-based, echovirus 11; settings: Enterovirus B, MRC5, 96 h; ECHO-11, MRC-5 cells, four days
# Description: (§3) Echovirus type 11 (ECHO 11) was purchased from ATCC (Rockville, Md.). Virus stocks were propagated and antiviral assays were performed in MRC-5 cells (ATCC).
# [6] = in vitro; settings: human, mock-infected H1-HeLa cells
# [7] = tested on: HRV-1A; test: Antirhinoviral H1-HeLa cell culture assay (XTT), HRV-1A; format: cell-based, human rhinovirus; settings: Rhinovirus A, HRV1A, H1-HeLa cells
# Description: as §1
# [8] = tested on: CAV-21; test: Anticoxsackieviral cell culture assay (XTT), CAV-21; format: cell-based, coxsackievirus A21; settings: Enterovirus C, 48 h; CAV-21, H1-HeLa cells, m.o.i. 0.025, two days
# [9] = tested on: HRV-14; test: Antirhinoviral H1-HeLa cell culture assay (XTT), HRV-14; format: cell-based, human rhinovirus; settings: Rhinovirus B, HRV14, HRV-14, H1-HeLa cells
# [10] = Cytotoxicity in uninfected MRC-5 cells (anti-echoviral assay, XTT); format: cell-based; settings: human, ECHO-11 row
# Description: as §3
# [11] = tested on: HRV-89; test: Antirhinoviral H1-HeLa cell culture assay (XTT), HRV-89; format: cell-based, human rhinovirus; settings: Rhinovirus A, HRV89, HRV-89, H1-HeLa cells
# Description: as §1
# [12] = target: T2, recombinant rhinovirus 3C protease, serotype 2 (Human rhinovirus 2, UniProt P04936); test: Inhibition of rhinovirus 3C protease (FRET assay), serotype 2; format: biochemical; settings: HRV-2 3C protease
# T2 construct: Recombinant rhinovirus 3C proteases; made in house
# Description: as §2
# [13] = tested on: H1-HeLa cells; test: Cytotoxicity in mock-infected H1-HeLa cells (antirhinoviral assay, XTT); settings: HRV-89 row
# [14] = target: T3, recombinant rhinovirus 3C protease, serotype 16 (Human rhinovirus 16, UniProt Q82122); test: Inhibition of rhinovirus 3C protease (FRET assay), serotype 16; format: biochemical; settings: HRV-16 3C protease
# T3 construct: Recombinant rhinovirus 3C proteases; made in house
# Description: as §2
# [15] = target: T4, rhinovirus 3C protease, HRV-89 (Human rhinovirus A serotype 89, UniProt P07210); test: Inhibition of rhinovirus 3C protease (FRET assay), serotype 89; format: biochemical, human rhinovirus 89; settings: HRV-89 3C protease
# T4 construct: Recombinant rhinovirus 3C proteases
# T4 sequence (P07210 1522-1704): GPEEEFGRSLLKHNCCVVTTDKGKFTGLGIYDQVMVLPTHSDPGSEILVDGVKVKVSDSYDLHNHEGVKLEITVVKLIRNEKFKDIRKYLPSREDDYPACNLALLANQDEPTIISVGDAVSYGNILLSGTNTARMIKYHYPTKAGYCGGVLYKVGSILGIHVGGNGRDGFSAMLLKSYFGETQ
# T1 sequence (P03303 1538-1719): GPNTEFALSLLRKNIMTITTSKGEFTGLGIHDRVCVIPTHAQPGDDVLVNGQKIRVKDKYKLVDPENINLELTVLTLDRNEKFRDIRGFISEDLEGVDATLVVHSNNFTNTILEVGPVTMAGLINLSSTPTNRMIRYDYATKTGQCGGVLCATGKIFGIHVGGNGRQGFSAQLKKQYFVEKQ
# T2 sequence (P04936 1508-1690): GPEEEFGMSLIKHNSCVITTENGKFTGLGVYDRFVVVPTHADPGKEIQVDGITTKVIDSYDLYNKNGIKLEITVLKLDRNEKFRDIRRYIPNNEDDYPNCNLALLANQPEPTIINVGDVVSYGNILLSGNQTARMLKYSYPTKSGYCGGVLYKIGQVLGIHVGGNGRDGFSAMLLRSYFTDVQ
# T3 sequence (Q82122 1511-1693): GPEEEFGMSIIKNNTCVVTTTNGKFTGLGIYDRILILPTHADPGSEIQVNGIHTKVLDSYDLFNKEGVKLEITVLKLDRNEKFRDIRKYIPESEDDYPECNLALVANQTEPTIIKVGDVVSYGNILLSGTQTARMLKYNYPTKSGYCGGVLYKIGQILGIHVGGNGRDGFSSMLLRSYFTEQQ
Structure (SMILES),EC50 [1] [nM],EC50 [2] [nM],Ki [3] [nM],CC50 at 2 days ([4]; CAV-21) [nM],CC50 at 1 day ([4]; CVB3) [nM],EC50 [5] [nM],CC50 at 2 days [6] [nM],EC50 [7] [nM],EC50 [8] [nM],EC50 [9] [nM],CC50 at 4 days [10] [nM],EC50 [11] [nM],Ki [12] [nM],CC50 [13] [nM],Ki [14] [nM],Ki [15] [nM]
"Cc1cc(C(=O)N[C@H](C(=O)N[C@@H](Cc2ccc(F)cc2)C(=O)N[C@@H](C[C@@H]2CCNC2=O)C(=O)c2nc3ccccc3s2)C(C)C)no1 [Compound 28, (5-Methylisoxazole-3-carboxyl)-L-Val-L-Phe(4-F)-L-[(S)-Pyrrol-Ala]-2-Benzthiazole]",253,5790,4.5,251000,251000,821,251000,337,4670,335,251000,,,,,
"C#CC(=O)[C@H](CNC(C)=O)NC(=O)[C@H](Cc1ccccc1)NC(=O)[C@H](CC(C)C)NC(=O)OCc1ccccc1 [Compound 14, Cbz-L-Leu-L-Phe-L-(N-Ac-amino-Ala)-C≡CH]",,,65,,,,> 100000,,,> 100000,,> 100000,124,> 100000,322,760
